Reference: the NIST ThermoML archive (doi:10.1007/s10765-006-0079-5)
Numbers after ± are expanded uncertainties.

Settings: Liquid, Pulse-echo method

**Q.** With `CCCCCCCCC` [nonane] as the molecule, how does the speed of sound (293.15 K, 100 kPa) read?
**A.** 1226.4 ± 5 m/s

**Q.** And the speed of sound (293.15 K, 10000 kPa)?
**A.** 1288 ± 5.2 m/s

**Q.** And the speed of sound (293.15 K, 20000 kPa)?
**A.** 1344.8 ± 5.4 m/s

**Q.** What about the speed of sound (293.15 K, 30000 kPa) of the same molecule?
**A.** 1396.9 ± 5.6 m/s

**Q.** What about the speed of sound (293.15 K, 40000 kPa) of the same molecule?
**A.** 1445.1 ± 5.8 m/s

**Q.** What about the speed of sound (293.15 K, 50000 kPa) of the same molecule?
**A.** 1490.1 ± 6 m/s

**Q.** And the speed of sound (293.15 K, 60000 kPa)?
**A.** 1532.5 ± 6.2 m/s

**Q.** What about the speed of sound (293.15 K, 70000 kPa) of the same molecule?
**A.** 1572.5 ± 6.4 m/s

**Q.** What about the speed of sound (293.15 K, 80000 kPa) of the same molecule?
**A.** 1610.6 ± 6.5 m/s

**Q.** What about the speed of sound (293.15 K, 90000 kPa) of the same molecule?
**A.** 1646.9 ± 6.7 m/s

**Q.** What about the speed of sound (293.15 K, 100000 kPa) of the same molecule?
**A.** 1681.6 ± 6.8 m/s

**Q.** What about the speed of sound (313.15 K, 100 kPa) of the same molecule?
**A.** 1146.2 ± 4.7 m/s

**Q.** What about the speed of sound (313.15 K, 10000 kPa) of the same molecule?
**A.** 1212.8 ± 4.9 m/s

**Q.** And the speed of sound (313.15 K, 20000 kPa)?
**A.** 1274.2 ± 5.2 m/s

**Q.** And the speed of sound (313.15 K, 30000 kPa)?
**A.** 1329.8 ± 5.4 m/s

**Q.** What about the speed of sound (313.15 K, 40000 kPa) of the same molecule?
**A.** 1380.9 ± 5.6 m/s

**Q.** What about the speed of sound (313.15 K, 50000 kPa) of the same molecule?
**A.** 1428.3 ± 5.8 m/s

**Q.** What about the speed of sound (313.15 K, 60000 kPa) of the same molecule?
**A.** 1472.7 ± 6 m/s

**Q.** And the speed of sound (313.15 K, 70000 kPa)?
**A.** 1514.7 ± 6.1 m/s

**Q.** And the speed of sound (313.15 K, 80000 kPa)?
**A.** 1554.4 ± 6.3 m/s

**Q.** And the speed of sound (313.15 K, 90000 kPa)?
**A.** 1592 ± 6.4 m/s

**Q.** What about the speed of sound (313.15 K, 100000 kPa) of the same molecule?
**A.** 1628 ± 6.6 m/s

**Q.** What about the speed of sound (333.15 K, 100 kPa) of the same molecule?
**A.** 1068.2 ± 4.3 m/s

**Q.** What about the speed of sound (333.15 K, 10000 kPa) of the same molecule?
**A.** 1140.9 ± 4.6 m/s

**Q.** What about the speed of sound (333.15 K, 20000 kPa) of the same molecule?
**A.** 1206.9 ± 4.9 m/s

**Q.** What about the speed of sound (333.15 K, 30000 kPa) of the same molecule?
**A.** 1266.2 ± 5.1 m/s

**Q.** And the speed of sound (333.15 K, 50000 kPa)?
**A.** 1369.8 ± 5.5 m/s

**Q.** And the speed of sound (333.15 K, 60000 kPa)?
**A.** 1416.3 ± 5.7 m/s

**Q.** What about the speed of sound (333.15 K, 70000 kPa) of the same molecule?
**A.** 1460.1 ± 5.9 m/s

**Q.** What about the speed of sound (333.15 K, 80000 kPa) of the same molecule?
**A.** 1501.3 ± 6.1 m/s

**Q.** And the speed of sound (333.15 K, 90000 kPa)?
**A.** 1540.3 ± 6.2 m/s

**Q.** What about the speed of sound (333.15 K, 100000 kPa) of the same molecule?
**A.** 1577.4 ± 6.4 m/s

**Q.** And the speed of sound (353.15 K, 100 kPa)?
**A.** 992.62 ± 4 m/s

**Q.** What about the speed of sound (353.15 K, 10000 kPa) of the same molecule?
**A.** 1072.6 ± 4.4 m/s

**Q.** What about the speed of sound (353.15 K, 20000 kPa) of the same molecule?
**A.** 1142.6 ± 4.6 m/s

**Q.** And the speed of sound (353.15 K, 30000 kPa)?
**A.** 1205.6 ± 4.9 m/s

**Q.** What about the speed of sound (353.15 K, 40000 kPa) of the same molecule?
**A.** 1262.5 ± 5.1 m/s

**Q.** And the speed of sound (353.15 K, 50000 kPa)?
**A.** 1314.6 ± 5.3 m/s

**Q.** What about the speed of sound (353.15 K, 60000 kPa) of the same molecule?
**A.** 1363.2 ± 5.5 m/s

**Q.** What about the speed of sound (353.15 K, 70000 kPa) of the same molecule?
**A.** 1408.5 ± 5.7 m/s

**Q.** What about the speed of sound (353.15 K, 80000 kPa) of the same molecule?
**A.** 1451.3 ± 5.9 m/s

**Q.** What about the speed of sound (353.15 K, 90000 kPa) of the same molecule?
**A.** 1491.7 ± 6 m/s

**Q.** And the speed of sound (353.15 K, 100000 kPa)?
**A.** 1529.8 ± 6.2 m/s

**Q.** What about the speed of sound (373.15 K, 100 kPa) of the same molecule?
**A.** 922.16 ± 3.8 m/s

**Q.** And the speed of sound (373.15 K, 10000 kPa)?
**A.** 1005 ± 4.1 m/s

**Q.** And the speed of sound (373.15 K, 20000 kPa)?
**A.** 1081.3 ± 4.4 m/s

**Q.** What about the speed of sound (373.15 K, 30000 kPa) of the same molecule?
**A.** 1148.1 ± 4.7 m/s

**Q.** What about the speed of sound (373.15 K, 40000 kPa) of the same molecule?
**A.** 1208 ± 4.9 m/s

**Q.** What about the speed of sound (373.15 K, 50000 kPa) of the same molecule?
**A.** 1262.5 ± 5.1 m/s

**Q.** And the speed of sound (373.15 K, 60000 kPa)?
**A.** 1313.1 ± 5.3 m/s

**Q.** And the speed of sound (373.15 K, 70000 kPa)?
**A.** 1360.1 ± 5.5 m/s

**Q.** What about the speed of sound (373.15 K, 80000 kPa) of the same molecule?
**A.** 1404.3 ± 5.7 m/s

**Q.** What about the speed of sound (373.15 K, 90000 kPa) of the same molecule?
**A.** 1446.1 ± 5.8 m/s

**Q.** What about the speed of sound (373.15 K, 100000 kPa) of the same molecule?
**A.** 1485.5 ± 6 m/s

**Q.** What about the speed of sound (393.15 K, 10000 kPa) of the same molecule?
**A.** 946.87 ± 3.9 m/s

**Q.** And the speed of sound (393.15 K, 20000 kPa)?
**A.** 1022.9 ± 4.2 m/s

**Q.** And the speed of sound (393.15 K, 30000 kPa)?
**A.** 1093.7 ± 4.4 m/s

**Q.** What about the speed of sound (393.15 K, 40000 kPa) of the same molecule?
**A.** 1156.6 ± 4.7 m/s

**Q.** And the speed of sound (393.15 K, 50000 kPa)?
**A.** 1213.6 ± 4.9 m/s

**Q.** What about the speed of sound (393.15 K, 60000 kPa) of the same molecule?
**A.** 1266.1 ± 5.1 m/s

**Q.** And the speed of sound (393.15 K, 70000 kPa)?
**A.** 1314.7 ± 5.3 m/s

**Q.** And the speed of sound (393.15 K, 80000 kPa)?
**A.** 1360.4 ± 5.5 m/s

**Q.** What about the speed of sound (393.15 K, 90000 kPa) of the same molecule?
**A.** 1403.3 ± 5.7 m/s

**Q.** What about the speed of sound (393.15 K, 100000 kPa) of the same molecule?
**A.** 1443.7 ± 5.8 m/s
